Data from ChEMBL document CHEMBL5052842, “Pharmaceutical compounds and their use as inhibitors of ubiquitin specific protease 19 (usp19)” (2020).

Biological target: T1, Ubiquitin carboxyl-terminal hydrolase 19 (Homo sapiens, UniProt O94966)
T1 sequence (O94966 whole entry): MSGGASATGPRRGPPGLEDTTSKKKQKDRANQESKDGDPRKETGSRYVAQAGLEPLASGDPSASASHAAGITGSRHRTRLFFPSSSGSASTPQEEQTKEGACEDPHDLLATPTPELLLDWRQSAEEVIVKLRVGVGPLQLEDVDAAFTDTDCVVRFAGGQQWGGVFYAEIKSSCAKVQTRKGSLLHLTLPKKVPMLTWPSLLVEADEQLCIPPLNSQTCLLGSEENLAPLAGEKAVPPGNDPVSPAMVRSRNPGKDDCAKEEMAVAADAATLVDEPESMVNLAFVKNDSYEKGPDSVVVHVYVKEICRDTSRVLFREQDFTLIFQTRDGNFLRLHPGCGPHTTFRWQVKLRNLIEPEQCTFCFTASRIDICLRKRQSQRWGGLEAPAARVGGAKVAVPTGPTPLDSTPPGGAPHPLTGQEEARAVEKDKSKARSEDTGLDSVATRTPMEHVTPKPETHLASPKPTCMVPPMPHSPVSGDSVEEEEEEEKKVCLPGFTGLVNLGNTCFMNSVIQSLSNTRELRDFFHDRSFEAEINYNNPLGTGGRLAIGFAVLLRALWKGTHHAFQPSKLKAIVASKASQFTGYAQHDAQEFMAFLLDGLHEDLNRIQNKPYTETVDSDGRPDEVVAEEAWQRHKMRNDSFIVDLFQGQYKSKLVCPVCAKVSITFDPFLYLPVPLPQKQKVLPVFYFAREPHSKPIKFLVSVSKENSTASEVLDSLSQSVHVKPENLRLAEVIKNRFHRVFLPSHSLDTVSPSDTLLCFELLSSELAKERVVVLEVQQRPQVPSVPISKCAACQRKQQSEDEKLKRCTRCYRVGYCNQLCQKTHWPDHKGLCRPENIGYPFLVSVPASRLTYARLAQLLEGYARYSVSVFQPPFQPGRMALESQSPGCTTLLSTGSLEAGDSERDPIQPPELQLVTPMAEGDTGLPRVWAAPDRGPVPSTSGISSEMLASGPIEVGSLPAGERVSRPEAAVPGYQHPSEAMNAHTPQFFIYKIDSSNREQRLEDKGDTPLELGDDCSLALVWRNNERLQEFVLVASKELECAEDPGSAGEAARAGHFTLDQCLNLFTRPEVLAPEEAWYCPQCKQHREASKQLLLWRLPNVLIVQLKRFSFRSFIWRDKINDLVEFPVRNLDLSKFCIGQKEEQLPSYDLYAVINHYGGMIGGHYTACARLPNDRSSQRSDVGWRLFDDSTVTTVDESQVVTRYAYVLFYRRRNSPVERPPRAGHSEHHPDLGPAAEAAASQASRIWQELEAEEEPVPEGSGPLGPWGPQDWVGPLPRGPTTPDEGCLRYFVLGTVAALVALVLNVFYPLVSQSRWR
Test: Inhibition of C-terminal His6-tagged recombinant human USP19 using iso-peptide ubiquitin-Lys-TAMRA as substrate incubated for 30 mins and measured after 90 mins by fluorescent polarization assay

SMILES	IC50 [nM]
C[C@H](CC1CCCCC1)C(=O)N1CCC(O)(Cn2cc(S(C)(=O)=O)c(Cl)cc2=O)C2(CCCC2)C1 (stereo not given in full)	< 500
CS(=N)(=O)c1cn(CC2(O)CCN(C(=O)N3CCOC[C@H]3c3ccccc3)CC23CCCC3)c(=O)cc1-c1ccccc1 (stereo not given in full)	< 500
C[C@H](CC1CCCCC1)C(=O)N1CCC(O)(Cn2cc([S+](C)[O-])c(Cl)cc2=O)C2(CCCC2)C1 (stereo not given in full)	< 500
O=C(NCc1ccc(F)c(F)c1)N1CC[C@@](O)(Cn2cnc(-c3ccccc3)cc2=O)C2(CCCC2)C1	< 500
O=C(N1CC[C@@](O)(Cn2cnc(N3CC4CC4C3)cc2=O)C2(CCCC2)C1)N1CCNC[C@H]1c1cc(F)ccc1F (stereo not given in full)	< 500
O=C(N1CC[C@@](O)(Cn2cnc(-c3ccccc3)cc2=O)C2(CCCC2)C1)N1CCNCC1c1cc(F)cc(F)c1 (stereo not given in full)	< 500
CN(C)C(=O)c1cn(CC2(O)CCN(C(=O)N(C)Cc3ccccc3)CC23CCCC3)c(=O)cc1-c1ccccc1 (stereo not given)	< 500
O=C(N1CCC(O)(Cn2cnc(-c3ccccc3)cc2=O)C2(CCC2)C1)N1CCOC[C@H]1c1ccccc1 (stereo not given in full)	< 500
CC1(C)CN(C(=O)N2CCOC[C@H]2c2ccccc2)CC[C@@]1(O)Cn1cnc(-c2ccccc2)cc1=O	< 500
O=C(N1CCC(O)(Cn2cnc3ccc(F)cc3c2=O)C2(CCCC2)C1)N1CCOC[C@H]1c1ccccc1 (stereo not given in full)	< 500
CN(C)C(=O)c1cn(CC2(O)CCN(C(=O)N(C)CC3CCCCC3)CC23CCCC3)c(=O)cc1-c1ccccc1 (stereo not given)	< 500
CSc1ncc2c(=O)n(CC3(O)CCN(C(=O)[C@H](C)CC(F)(F)F)CC34CCCC4)ccc2n1 (stereo not given in full)	< 500
O=C(N1CC[C@@](O)(Cn2cnc(-c3ccccc3)cc2=O)C2(CCCC2)C1)N1CCN(CC(F)(F)F)C[C@H]1c1ccccc1	< 500
O=C(N1CC[C@@](O)(Cn2cnc(-c3ccccc3)cc2=O)C2(CCCC2)C1)N1CCNCC1c1ccc(F)c(F)c1 (stereo not given in full)	< 500
O=C(N1CC[C@@](O)(Cn2cnc(-c3ccccc3)cc2=O)C2(CCCC2)C1)N1CCNC[C@H]1c1cc(F)ccc1F	< 500
C[C@H](CC1CCCCC1)C(=O)N1CCC(O)(Cn2cnc3ccc(Cl)cc3c2=O)C2(CCCC2)C1 (stereo not given in full)	< 500
CCn1ncc2c(=O)n(CC3(O)CCN(C(=O)[C@H](C)CC4CCCCC4)CC34CCCC4)cnc21 (stereo not given in full)	< 500
O=C(N1CC[C@@](O)(Cn2cnc(-c3ccccc3)cc2=O)C2(CCCC2)C1)N1CCSC[C@H]1c1cc(F)ccc1F	< 500
O=C(N1CC[C@@](O)(Cn2cnc(-c3ccccc3)cc2=O)C2(CCCC2)C1)N1CCS(=O)(=O)CC1c1ccccc1 (stereo not given in full)	< 500

SMILES	IC50 [nM]
C[C@H](CC1CCCCC1)C(=O)N1CCC(O)(CN2CCN(c3ccccc3)CC2=O)C2(CCCC2)C1 (stereo not given in full)	< 500
COc1ccccc1-c1cc(=O)n(C[C@]2(O)CCN(C(=O)N3CCNC[C@H]3c3cc(F)ccc3F)CC23CCCC3)cn1	< 500
O=C(N1CC[C@@](O)(Cn2cnc(-c3ccccc3)cc2=O)C2(CCCC2)C1)N1CCNCC1c1ccccc1F (stereo not given in full)	< 500
O=C(NCc1ccco1)N1CC[C@@](O)(Cn2cnc(-c3ccccc3)cc2=O)C2(CCCC2)C1	< 500
O=C(N1CC[C@@](O)(Cn2cnc(C3CC3)cc2=O)C2(CCCC2)C1)N1CCNC[C@H]1c1cc(F)ccc1F	< 500
O=C(N1CC[C@@](O)(Cn2cnc(-c3ccccc3)cc2=O)C2(CCCC2)C1)N1CCOC[C@H]1c1ccc(F)cc1	< 500
C[C@H](CC1CCCCC1)C(=O)N1CCC(O)(Cn2cc(Br)ncc2=O)C2(CCCC2)C1 (stereo not given in full)	< 500
C[C@H](CC1CCCCC1)C(=O)N1CCC(O)(Cn2cc(C(=O)N3CCNCC3)ncc2=O)C2(CCCC2)C1 (stereo not given in full)	< 500
O=C(NCc1ccc(F)cc1F)N1CC[C@@](O)(Cn2cnc(-c3ccccc3)cc2=O)C2(CCCC2)C1	< 500
O=C(N1CCC(O)(Cn2cnc(-c3ccccc3)cc2=O)CC1)N1CCNC[C@H]1c1ccccc1	< 500
CN1CCN(C(=O)N2CC[C@@](O)(Cn3cnc(-c4ccccc4)cc3=O)C3(CCCC3)C2)[C@H](c2ccccc2)C1	< 500
N[C@H]1CCN(C(=O)N2CC[C@@](O)(Cn3cnc(-c4ccccc4)cc3=O)C3(CCCC3)C2)[C@H](c2ccccc2)C1	< 500
O=C(N1CC[C@@](O)(Cn2cnc(Cl)cc2=O)C2(CCCC2)C1)N1CCOC[C@H]1c1ccc(F)cc1	< 500
CC1(C)CN(C(=O)N2CCNC[C@H]2c2ccccc2)CC[C@@]1(O)Cn1cnc(-c2ccccc2)cc1=O	< 500
O=C(N1CCC(O)(Cn2cnc(-c3ccccc3)cc2=O)C2(CCCC2)C1)N1CCOCC1c1cccs1 (stereo not given)	< 500
C[C@H](CC1CCCCC1)C(=O)N1CCC(O)(Cn2cc(N=S(C)(C)=O)c(-c3ccccc3)cc2=O)C2(CCCC2)C1 (stereo not given in full)	< 500
C[C@H](CC1CCCCC1)C(=O)N1CCC(O)(Cn2cc(Cl)ncc2=O)C2(CCCC2)C1 (stereo not given in full)	< 500
O=C(N1CC[C@@](O)(Cn2cnc(-c3ccccc3OC(F)(F)F)cc2=O)C2(CCCC2)C1)N1CCNC[C@H]1c1ccccc1	< 500

Further lines, results first:

IC50 [nM]	SMILES
< 500	O=C(N1CC[C@@](O)(Cn2cnc(-c3ccc4c(c3)OCC4)cc2=O)C2(CCCC2)C1)N1CCNC[C@H]1c1ccccc1
< 500	COc1cccc(F)c1-c1cc(=O)n(C[C@]2(O)CCN(C(=O)N3CCNC[C@H]3c3ccccc3)CC23CCCC3)cn1
< 500	O=C(N1CC[C@@](O)(Cn2cnc(-c3ccccc3OC3CC3)cc2=O)C2(CCCC2)C1)N1CCNC[C@H]1c1ccccc1
< 500	Cn1nccc1-c1cc(=O)n(C[C@]2(O)CCN(C(=O)N3CCNC[C@H]3c3ccccc3)CC23CCCC3)cn1
< 500	O=C(N1CC[C@@](O)(Cn2cnc(-c3cccc(F)c3F)cc2=O)C2(CCCC2)C1)N1CCNC[C@H]1c1ccccc1
< 500	O=C(N1CC[C@@](O)(Cn2cnc(N3CCC(F)CC3)cc2=O)C2(CCCC2)C1)N1CCNC[C@H]1c1ccccc1
< 500	Cc1cccc(F)c1-c1cc(=O)n(C[C@]2(O)CCN(C(=O)N3CCNC[C@H]3c3ccccc3)CC23CCCC3)cn1
< 500	O=C(N1CC[C@@](O)(Cn2cnc(-c3ccccc3)cc2=O)C2(CCCC2)C1)N1CCNC[C@H]1c1ccccc1
< 500	CN(C)c1cc(=O)n(C[C@]2(O)CCN(C(=O)N3CCOC[C@H]3c3ccccc3)CC23CCCC3)cn1
< 500	Cn1cc(-c2cc(=O)n(C[C@]3(O)CCN(C(=O)N4CCNC[C@H]4c4ccccc4)CC34CCCC4)cn2)cn1
< 500	COc1ccc(F)cc1-c1cc(=O)n(C[C@]2(O)CCN(C(=O)N3CCNC[C@H]3c3ccccc3)CC23CCCC3)cn1
< 500	CS(=N)(=O)c1cn(CC2(O)CCN(C(=O)N3CCNC[C@H]3c3ccccc3)CC23CCCC3)c(=O)cc1-c1ccccc1 (stereo not given in full)
< 500	O=C(N1CC[C@@](O)(Cn2cnc(-c3ccccc3F)cc2=O)C2(CCCC2)C1)N1CCNC[C@H]1c1cccc(F)c1
< 500	O=C(N1CCC(O)(Cn2cnc3ccc(F)cc3c2=O)C2(CCCC2)C1)N1CCNC[C@H]1c1ccccc1 (stereo not given in full)
< 500	COc1cccc(-c2cc(=O)n(C[C@]3(O)CCN(C(=O)N4CCNC[C@H]4c4ccccc4)CC34CCCC4)cn2)c1
< 500	O=C(N1CC[C@@](O)(Cn2ccc(C3CC3)cc2=O)C2(CCCC2)C1)N1CCNC[C@H]1c1ccccc1
< 500	O=C(N1CC[C@@](O)(Cn2cnc(-c3ccc4c(c3)COC4)cc2=O)C2(CCCC2)C1)N1CCNC[C@H]1c1ccccc1
< 500	O=C(N1CC[C@@](O)(Cn2cnc(N3CCCC(F)(F)C3)cc2=O)C2(CCCC2)C1)N1CCNC[C@H]1c1ccccc1
< 500	Cc1cn(CC2(O)CCN(C(=O)N3CCNC[C@H]3c3ccccc3)CC23CCCC3)c(=O)cn1 (stereo not given in full)
< 500	O=C(N1CC[C@@](O)(Cn2cnc(N3CC(F)(F)C3)cc2=O)C2(CCCC2)C1)N1CCNC[C@H]1c1ccccc1
< 500	COc1ccc(-c2cc(=O)n(C[C@]3(O)CCN(C(=O)N4CCNC[C@H]4c4ccccc4)CC34CCCC4)cn2)s1
< 500	O=C(N1CC[C@@](O)(Cn2cnc(N3CCCCC3)cc2=O)C2(CCCC2)C1)N1CCNC[C@H]1c1ccccc1
< 500	Cc1cc(=O)n(C[C@]2(O)CCN(C(=O)N3CCNC[C@H]3c3ccccc3)CC23CCCC3)cn1
